Assay results from the supplement of paper PMC10733146.

How the values were obtained:
Assay in all cases: viability relative to DMSO control (fraction); higher = less drug effect (more viable cells)
Conditions in all cases: 48 h
Palbociclib = compound: CC(=O)c1c(C)c2cnc(Nc3ccc(N4CCNCC4)cn3)nc2n(C2CCCC2)c1=O [Palbociclib]
In short: (§1)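 Viability was measured as CellTiter-Glo luminescence relative to the median of 16 inner DMSO wells. Primary mononuclear tumour cells, fresh or cryopreserved, were Ficoll-isolated from blood or bone marrow or taken from processed lymph node. They were seeded at 4 × 10^4 cells per well into 384-well plates holding pre-plated compounds at five concentrations, one well each, and kept in RPMI-1640 with penicillin/streptomycin, L-glutamine and human serum at 37 °C and 5% CO2 for 48 h.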

Navitoclax = compound: CC1(C)CCC(c2ccc(Cl)cc2)=C(CN2CCN(c3ccc(C(=O)NS(=O)(=O)c4ccc(N[C@H](CCN5CCOCC5)CSc5ccccc5)c(S(=O)(=O)C(F)(F)F)c4)cc3)CC2)C1 [Navitoclax]
In short: as §1

I-BET-762 = compound: CCNC(=O)C[C@@H]1N=C(c2ccc(Cl)cc2)c2cc(OC)ccc2-n2c(C)nnc21 [I-BET-762]
In short: as §1

Etoposide = compound: COc1cc([C@@H]2c3cc4c(cc3[C@@H](O[C@@H]3O[C@@H]5CO[C@@H](C)O[C@H]5[C@H](O)[C@H]3O)[C@H]3COC(=O)[C@H]23)OCO4)cc(OC)c1O [Etoposide]
In short: as §1

Duvelisib = compound: C[C@H](Nc1ncnc2nc[nH]c12)c1cc2cccc(Cl)c2c(=O)n1-c1ccccc1 [Duvelisib]
In short: as §1

Bendamustine = compound: Cn1c(CCCC(=O)O)nc2cc(N(CCCl)CCCl)ccc21 [Bendamustine]
In short: as §1

Pomalidomide = compound: Nc1cccc2c1C(=O)N(C1CCC(=O)NC1=O)C2=O [Pomalidomide]
In short: as §1

Selinexor = compound: O=C(/C=C\n1cnc(-c2cc(C(F)(F)F)cc(C(F)(F)F)c2)n1)NNc1cnccn1 [Selinexor]
In short: as §1

[1] = compound: O=C(NO)c1cccc(C(=O)NCCc2ccccc2)c1
In short: as §1

[2] = compound: O=C(Nc1ccc2[nH]nc(-c3ccncc3)c2c1)[C@@H]1CCN(CC(=O)N2CCN(c3ccc(-c4ncccn4)cc3)CC2)C1
In short: as §1

Filgotinib = compound: O=C(Nc1nc2cccc(-c3ccc(CN4CCS(=O)(=O)CC4)cc3)n2n1)C1CC1 [Filgotinib]
In short: as §1

Chlorambucil = compound: O=C(O)CCCc1ccc(N(CCCl)CCCl)cc1 [Chlorambucil]
In short: as §1

Thalidomide = compound: O=C1CCC(N2C(=O)c3ccccc3C2=O)C(=O)N1 [Thalidomide]
In short: as §1

primary T-NHL patient cells (S058)
viability (Palbociclib; 0.024 µM): 1.15
viability (Palbociclib; 0.12 µM): 1.32
viability (Palbociclib; 0.6 µM): 1.08
viability (Palbociclib; 3 µM): 0.899
viability (Palbociclib; 15 µM): 0.538
viability (Navitoclax; 0.0032 µM): 1.19
viability (Navitoclax; 0.016 µM): 1.08
viability (Navitoclax; 0.08 µM): 1.01
viability (Navitoclax; 0.4 µM): 0.568
viability (Navitoclax; 2 µM): 0.325
viability (I-BET-762; 0.008 µM): 1.17
viability (I-BET-762; 0.04 µM): 1.03
viability (I-BET-762; 0.2 µM): 0.904
viability (I-BET-762; 1 µM): 0.816
viability (I-BET-762; 5 µM): 0.61
viability (Etoposide; 0.032 µM): 0.838
viability (Etoposide; 0.16 µM): 1.16
viability (Etoposide; 0.8 µM): 0.739
viability (Etoposide; 4 µM): 0.654
viability (Etoposide; 20 µM): 0.268
viability (Duvelisib; 0.0016 µM): 1.1
viability (Duvelisib; 0.008 µM): 1.04
viability (Duvelisib; 0.04 µM): 0.923
viability (Duvelisib; 0.2 µM): 1.03
viability (Duvelisib; 1 µM): 0.91
viability (Bendamustine; 0.032 µM): 0.971
viability (Bendamustine; 0.16 µM): 1.01
viability (Bendamustine; 0.8 µM): 0.925
viability (Bendamustine; 4 µM): 0.868
viability (Bendamustine; 20 µM): 0.564
viability (Pomalidomide; 0.0032 µM): 0.937
viability (Pomalidomide; 0.016 µM): 1.16
viability (Pomalidomide; 0.08 µM): 1.27
viability (Pomalidomide; 0.4 µM): 0.858
viability (Pomalidomide; 2 µM): 1.2
viability (Selinexor; 0.008 µM): 0.967
viability (Selinexor; 0.04 µM): 0.877
viability (Selinexor; 0.2 µM): 0.806
viability (Selinexor; 1 µM): 0.709
viability (Selinexor; 5 µM): 0.469
viability ([1]; 0.024 µM): 1.02
viability ([1]; 0.12 µM): 1.31
viability ([1]; 0.6 µM): 1.07
viability ([1]; 3 µM): 1.02
viability ([1]; 15 µM): 1.08
viability ([2]; 0.008 µM): 1.04
viability ([2]; 0.04 µM): 1.1
viability ([2]; 0.2 µM): 1.01
viability ([2]; 1 µM): 0.989
viability ([2]; 5 µM): 0.908
viability (Filgotinib; 0.024 µM): 0.912
viability (Filgotinib; 0.12 µM): 0.985
viability (Filgotinib; 0.6 µM): 0.904
viability (Filgotinib; 3 µM): 0.875
viability (Filgotinib; 15 µM): 0.524
viability (Chlorambucil; 0.032 µM): 1.02
viability (Chlorambucil; 0.16 µM): 0.938
viability (Chlorambucil; 0.8 µM): 0.932
viability (Chlorambucil; 4 µM): 0.81
viability (Chlorambucil; 20 µM): 0.262
viability (Thalidomide; 0.032 µM): 1.03
viability (Thalidomide; 0.16 µM): 1.02
viability (Thalidomide; 0.8 µM): 1.07
viability (Thalidomide; 4 µM): 1.14
viability (Thalidomide; 20 µM): 1.02

primary DLBCL patient cells (S049)
viability (Palbociclib; 0.024 µM): 0.999
viability (Palbociclib; 0.12 µM): 0.968
viability (Palbociclib; 0.6 µM): 0.88
viability (Palbociclib; 3 µM): 0.496
viability (Palbociclib; 15 µM): 0.0932
viability (Navitoclax; 0.0032 µM): 1
viability (Navitoclax; 0.016 µM): 0.834
viability (Navitoclax; 0.08 µM): 0.375
viability (Navitoclax; 0.4 µM): 0.0676
viability (Navitoclax; 2 µM): 0.0439
viability (I-BET-762; 0.008 µM): 0.982
viability (I-BET-762; 0.04 µM): 1.02
viability (I-BET-762; 0.2 µM): 0.987
viability (I-BET-762; 1 µM): 0.552
viability (I-BET-762; 5 µM): 0.246
viability (Etoposide; 0.032 µM): 0.907
viability (Etoposide; 0.16 µM): 1.01
viability (Etoposide; 0.8 µM): 0.962
viability (Etoposide; 4 µM): 0.882
viability (Etoposide; 20 µM): 0.548
viability (Duvelisib; 0.0016 µM): 0.988
viability (Duvelisib; 0.008 µM): 0.969
viability (Duvelisib; 0.04 µM): 0.92
viability (Duvelisib; 0.2 µM): 0.986
viability (Duvelisib; 1 µM): 0.81
viability (Bendamustine; 0.032 µM): 0.986
viability (Bendamustine; 0.16 µM): 0.994
viability (Bendamustine; 0.8 µM): 1.05
viability (Bendamustine; 4 µM): 1.11
viability (Bendamustine; 20 µM): 0.937
viability (Pomalidomide; 0.0032 µM): 0.959
viability (Pomalidomide; 0.016 µM): 1.11
viability (Pomalidomide; 0.08 µM): 1
viability (Pomalidomide; 0.4 µM): 0.899
viability (Pomalidomide; 2 µM): 0.948
viability (Selinexor; 0.008 µM): 0.54
viability (Selinexor; 0.04 µM): 0.486
viability (Selinexor; 0.2 µM): 0.499
viability (Selinexor; 1 µM): 0.669
viability (Selinexor; 5 µM): 0.586
viability ([1]; 0.024 µM): 0.886
viability ([1]; 0.12 µM): 0.986
viability ([1]; 0.6 µM): 0.966
viability ([1]; 3 µM): 1.02
viability ([1]; 15 µM): 1.05
viability ([2]; 0.008 µM): 0.611
viability ([2]; 0.04 µM): 0.53
viability ([2]; 0.2 µM): 0.396
viability ([2]; 1 µM): 0.304
viability ([2]; 5 µM): 0.245
viability (Filgotinib; 0.024 µM): 0.918
viability (Filgotinib; 0.12 µM): 0.969
viability (Filgotinib; 0.6 µM): 1.03
viability (Filgotinib; 3 µM): 0.926
viability (Filgotinib; 15 µM): 0.203
viability (Chlorambucil; 0.032 µM): 0.96
viability (Chlorambucil; 0.16 µM): 0.976
viability (Chlorambucil; 0.8 µM): 1.05
viability (Chlorambucil; 4 µM): 0.952
viability (Chlorambucil; 20 µM): 0.589
viability (Thalidomide; 0.032 µM): 0.902
viability (Thalidomide; 0.16 µM): 0.864
viability (Thalidomide; 0.8 µM): 0.918
viability (Thalidomide; 4 µM): 0.968
viability (Thalidomide; 20 µM): 1.03
